Patent publication US8906906B2, “Viral replication inhibitors” (Katholieke Universiteit Leuven, priority 2009, dated 2014)
pEC50, pIC50: −log10 of the molar value.

Legend:
[1] = biological target: T1, His6-tagged HIV-1 integrase / flag-LEDGF/p75 interaction (Human immunodeficiency virus type 1 group M subtype B, UniProt P04585); assay: AlphaScreen assay of LEDGF-integrase interaction inhibition; assay type: binding; conditions: for pIC50: compounds tested from 0.1 up to 100 μM; for inhibition at 100 µM: read-out: % inhibition at 100 μM in IN-LEDGF alphascreen (values marked *)
T1 construct: His6-tagged HIV-1 integrase; made in house
Protocol: Alphascreen Assay to Measure the LEDGF-Integrase Interaction Inhibitory Activity of Compounds of the Invention
The AlphaScreen assay was performed according to the manufacturer's protocol (Perkin Elmer, Benelux). Reactions were performed in 25 μl final volume in 384-well Optiwell™ microtiter plates (Perkin Elmer). The reaction buffer contained 25 mM Tris-HCl (pH 7.4), 150 mM NaCl, 1 mM MgCl2, 0.01% (v/v) Tween-20 and 0.1% (w/v) bovine serum albumin. His6-tagged integrase (300 nM final concentration) was incubated with the compounds for 30 min at 4° C. The compounds were added at varying concentrations spanning a wide range from 0.1 up to 100 μM. Afterwards 100 nM flag-LEDGF/p75 was added and incubation was prolonged for an additional hour at 4° C. Subsequently 5 μl of Ni-chelate-coated acceptor beads and 5 μl anti-flag donor beads were added to a final concentration of 20 μg/ml of both beads. Proteins and beads were incubated for 1 h at 30° C. in order to allow association to occur. Exposure of the reaction to direct light was omitted as much as possible and the emission of light from the acceptor beads was measured in the EnVision plate reader (Perkin Elmer, Benelux) and analyzed using the EnVision manager software. IN/DNA binding was analyzed in a similar setting using His6-tagged integrase (1 μM final concentration) and an oligodeoxynucleotide mimicking the IN ELISA oligonucleotide substrate (30 nM final concentration). Counterscreens with JPO2 or PogZ, respectively, were essentially performed as described previously.
Expression and purification of recombinant proteins: His6-tagged HIV-1 integrase, 3×flag-tagged LEDGF/p75, MBP-JPO2 and MBP-PogZ were purified for AlphaScreen applications as described previously 23,25,56.

[2] = Cytotoxicity in mock-infected MT-4 cells (MTT); assay type: cell-based; conditions: human, read-out: CC50 in MT4-IIIB (μm)
Protocol: A rapid and automated assay procedure was used for the in vitro evaluation of anti-HIV agents. An HTLV-1 transformed T4-cell line MT-4, which was previously shown to be highly susceptible to and permissive for HIV infection, served as the target cell line. Inhibition of the HIV-induced cytopathogenic effect was used as the end point. The viability of both HIV-and mock-infected cells was assessed spectrophotometrically via in situ reduction of 3-(4,5-dimethylthiazol-2-yl)-2,5-diphenyltetrazolium bromide (MTT). The 50% cytotoxic concentration (CC50 in μg/ml) was defined as the concentration of compound that reduced the absorbance of the mock-infected control sample by 50%. The percent protection achieved by the compound in HIV-infected cells was calculated by the following formula: […]
Examples of inhibition of cell proliferation by particular compounds of formula (I) can be found by looking at the respective CC50 values in the MT-4 cell line.
Cells: MT-4 cells (Miyoshi et al., 1982) were grown and maintained in RPMI 1640 medium supplemented with 10% heat-inactivated fetal calf serum, 2 mM I-glutamine, 0.1% sodium bicarbonate, and 20 æg of gentamicin per ml.

HIV (MT4-IIIB) = assay: Anti-HIV activity: inhibition of HIV-induced cytopathogenic effect in MT-4 cells (MTT); assay type: cell-based; conditions: Human immunodeficiency virus 1, IIIB

Row | Structure (SMILES) | pIC50 [1] | CC50 [2] | pEC50 (HIV (MT4-IIIB)) | inhibition at 100 µM [1]
1 | CCCC(C(=O)O)c1c(C)nc(N2CCN(C)CC2)nc1-c1ccc(C)cc1 (stereo not drawn) [cpd 32] | 4.27 | > 250 µM |  | 
2 | CCCC(C(=O)O)c1c(C)nc(-c2ccccc2)nc1-c1ccc(Cl)cc1 (stereo not drawn) [cpd 102] | 4.87 | 143 µM | 4.87 | 
3 | CCCC(C(=O)O)c1c(C)nc(-c2ccccc2)nc1-c1cccc(O)c1 (stereo not drawn) [cpd 26] |  | > 125 µM | 4.15 | 
4 | CCCC(C(=O)O)c1c(C)nc(-c2ccccc2)nc1-c1ccc2c(c1)CCO2 (stereo not drawn) [cpd 70] | 4.83 | 90 µM | 4.38 | 
5 | CCCC(C(=O)O)c1c(C)nc(-c2ccccc2)nc1-c1ccc2c(c1)OCCN2C (stereo not drawn) [cpd 86] |  | 118 µM |  | 46%
6 | Cc1ccc(-c2nc(N3CCCCC3)nc(C)c2C(CCCC(F)(F)F)C(=O)O)cc1 (stereo not drawn) [cpd 124] | 4.70 | 124 µM | 5.28 | 
7 | CCCC(C(=O)O)c1c(C)nc(N2CCCCC2)nc1-c1ccc(OC)cc1F (stereo not drawn) [cpd 136] | 4.68 | 127 µM | 4.31 | 
8 | CCCC(C(=O)O)c1c(C)nc(N2CCCC(c3nc(C(C)C)no3)C2)nc1-c1ccc(C)cc1 (stereo not drawn) [cpd 46] | 4.09 | 42 µM |  | 
9 | CCCC(C(=O)O)c1c(C)nc(/C=C/c2ccccc2)nc1-c1ccccc1 (stereo not drawn) [cpd 6] | 4.34 | 98.7 µM |  | 
10 | CCCC(C(=O)O)c1c(C)nc(N2CCc3ccccc32)nc1-c1ccc(C)cc1 (stereo not drawn) [cpd 58] | 4.75 | 38.7 µM | 5.54 | 
11 | COCCC(C(=O)O)c1c(C)nc(N2CCCCC2)nc1-c1ccc(C)cc1 (stereo not drawn) [cpd 122] | 4.22 | > 250 µM | 4.67 | 
12 | CCCC(C(=O)O)c1c(C)nc(-c2ccccc2)nc1-c1ccccc1 (stereo not drawn) [cpd 24] |  | > 125 µM | 4.10 | 
13 | CCCC(C(=O)O)c1c(C)nc(N2CCCCC2)nc1-c1ccc(C)cc1C (stereo not drawn) [cpd 132] | 4.64 | 84.5 µM | 4.52 | 
14 | CCCC(C(=O)O)c1c(C)nc(N2CCCC(c3ccccc3)C2)nc1-c1ccc(C)cc1 (stereo not drawn) [cpd 50] | 4.08 | 28 µM |  | 
15 | CCCC(C(=O)O)c1c(C)nc(-c2ccccc2)nc1-c1ccc2occc2c1 (stereo not drawn) [cpd 72] | 4.83 | 110 µM | 4.33 | 
16 | CCCC(C(=O)O)c1c(C)nc(-c2ccccc2)nc1-c1ccc(C)c(C)c1 (stereo not drawn) [cpd 66] | 4.55 | 120 µM |  | 
17 | CCCC(C(=O)O)c1c(C)nc(-c2ccccc2Cl)nc1-c1ccc(C)cc1 (stereo not drawn) [cpd 18] | 4.05 | 125 µM |  | 
18 | CCCC(C(=O)O)c1c(C)nc(N2CCCC(C(=O)NCC(C)C)C2)nc1-c1ccc(C)cc1 (stereo not drawn) [cpd 38] | 4.96 | 144 µM | 5.22 | 
19 | CCCC(C(=O)O)c1c(C)nc(NCc2ccccc2)nc1-c1ccc(C)cc1 (stereo not drawn) [cpd 168] |  | 128 µM | 4.62 | 
20 | CCCC(C(=O)O)c1c(C)nc(N2CCCC(Oc3ccccc3)C2)nc1-c1ccc(C)cc1 (stereo not drawn) [cpd 48] | 5.02 | 25 µM |  | 
21 | CCCC(C(=O)O)c1c(C)nc(-c2ccccc2)nc1-c1ccc(C)cc1O (stereo not drawn) [cpd 119] | 4.66 | 120 µM | 4.53 | 
22 | CCCC(C(=O)O)c1c(C)nc(-c2ccc(C)cc2)nc1-c1ccc(C)cc1 (stereo not drawn) [cpd 10] | 4.51 | 110 µM | 4.45 | 
23 | CCCC(C(=O)O)c1c(C)nc(-c2ccccc2)nc1-c1ccc2ccn(C)c2c1 (stereo not drawn) [cpd 92] |  | 113 µM |  | 51%
24 | CCCC(C(=O)O)c1c(C)nc(-c2ccccc2)nc1Cc1ccccc1 (stereo not drawn) [cpd 117] | 5.21 | > 250 µM |  | 
25 | CCCC(C(=O)O)c1c(C)nc(N2CCC(NC(=O)c3ccccc3)CC2)nc1-c1ccc(C)cc1 (stereo not drawn) [cpd 54] | 5.41 | 67 µM |  | 
26 | CCCC(C(=O)O)c1c(C)nc(-c2ccccc2)nc1-c1ccc(Cl)cc1OC (stereo not drawn) [cpd 110] |  | 94 µM |  | 40%

Row | Structure (SMILES) | pIC50 [1] | CC50 [2] | pEC50 (HIV (MT4-IIIB)) | inhibition at 100 µM [1]
27 | CCCC(C(=O)O)c1c(C)nc(N2CCc3ccccc3C2)nc1-c1ccc(C)cc1 (stereo not drawn) [cpd 42] | 4.76 | 26 µM |  | 
28 | Cc1ccc(-c2nc(N3CCCCC3)nc(C)c2C(OC(C)(C)C)C(=O)O)cc1 (stereo not drawn) [cpd 154] |  | 118 µM | 5.97 | 
29 | CCCC(C(=O)O)c1c(C)nc(-c2ccccc2)nc1-c1ccc2c(ccn2C)c1 (stereo not drawn) [cpd 74] |  | 129 µM |  | 46%
30 | CCCC(C(=O)O)c1c(C)nc(-c2ccccc2)nc1-c1ccc(C)cc1OC (stereo not drawn) [cpd 120] |  | 124 µM |  | 48%
31 | CCCC(C(=O)O)c1c(C)nc(-c2ccccc2Cl)nc1-c1ccccc1 (stereo not drawn) [cpd 16] |  | > 250 µM | 3.82 | 
32 | CCCC(C(=O)O)c1c(C)nc(N(C)C2CCCCC2)nc1-c1ccc(C)cc1 (stereo not drawn) [cpd 12] | 4.60 | 81.8 µM | 4.32 | 
33 | CCCC(C(=O)O)c1c(C)nc(N2CC(C)CC(C)C2)nc1-c1ccc(C)cc1 (stereo not drawn) [cpd 34] | 4.76 | 57 µM |  | 
34 | CCCC(C(=O)O)c1c(C)nc(-c2ccccc2)nc1-c1ccc(C(F)(F)F)cc1 (stereo not drawn) [cpd 108] | 4.00 | 47 µM |  | 
35 | CCCC(C(=O)O)c1c(C)nc(N2CCCCCC2)nc1-c1ccc(C)cc1 (stereo not drawn) [cpd 36] | 4.95 | 58 µM |  | 
36 | CCCC(C(=O)O)c1c(C)nc(-c2ccccc2)nc1-c1ccc2[nH]c(=O)[nH]c2c1 (stereo not drawn) [cpd 100] | 4.15 | 96 µM |  | 
37 | CCCC(C(=O)O)c1c(C)nc(N(C)C)nc1-c1ccccc1 (stereo not drawn) [cpd 2] | 4.44 | 164 µM |  | 
38 | CCCC(C(=O)O)c1c(C)nc(-c2ccccc2)nc1-c1ccc(C(C)C)cc1 (stereo not drawn) [cpd 106] | 4.25 | 32 µM |  | 
39 | CCCC(C(=O)O)c1c(C)nc(-c2ccccc2)nc1-c1ccc2c(c1)CCCO2 (stereo not drawn) [cpd 90] | 4.21 | 125 µM |  | 
40 | CCCC(C(=O)O)c1c(C)nc(-c2ccccc2)nc1-c1ccc2sccc2c1 (stereo not drawn) [cpd 88] | 4.18 | 121 µM |  | 
41 | CCCC(C(=O)O)c1c(C)nc(N2CC[C@H](N(C)C)C2)nc1-c1ccc(C)cc1 (stereo partly drawn) [cpd 52] | 5.44 | 101 µM |  | 
42 | CCCC(C(=O)O)c1c(C)nc(-c2ccccc2)nc1N1CCN(C)CC1 (stereo not drawn) [cpd 64] |  | > 250 µM | 3.71 | 
43 | CCCC(C(=O)O)c1c(C)nc(-c2ccccc2)nc1-c1ccc2ccccc2c1 (stereo not drawn) [cpd 68] |  | 53 µM |  | 61%
44 | CCCC(C(=O)O)c1c(C)nc(NCC(C)(C)C)nc1-c1ccc(C)cc1 (stereo not drawn) [cpd 174] |  | 155 µM | 4.60 | 
45 | CCCC(C(=O)O)c1c(C)nc(-c2ccccc2)nc1Oc1ccccc1 (stereo not drawn) [cpd 78] |  | 102 µM |  | 58%
46 | CCCC(C(=O)O)c1c(C)nc(N2CCCN(Cc3ccccc3)CC2)nc1-c1ccc(C)cc1 (stereo not drawn) [cpd 44] | 4.96 | 7 µM |  | 
47 | CCCC(C(=O)O)c1c(C)nc(-c2ccccc2O)nc1-c1ccc(C)cc1 (stereo not drawn) [cpd 158] |  | 119 µM | 4.75 | 
48 | Cc1ccc(-c2nc(N3CCCCC3)nc(C)c2C(Cc2ccccc2)C(=O)O)cc1 (stereo not drawn) [cpd 126] | 4.57 | 67 µM |  | 
49 | CCCC(C(=O)O)c1c(C)nc(-c2cnn(C)c2)nc1-c1ccc(C)cc1 (stereo not drawn) [cpd 162] |  | > 250 µM | 4.14 | 
50 | CCCC(C(=O)O)c1c(C)nc(-c2ccccc2)nc1N1CCc2ccccc2C1 (stereo not drawn) [cpd 76] | 4.03 | 74 µM |  | 
51 | CCCC(C(=O)O)c1c(C)nc(N2CCCCC2)nc1-c1cc(F)c(F)cc1F (stereo not drawn) [cpd 142] | 4.30 | 79 µM |  | 
